Test results as given in patent US11911349B2, “Rapidly improving vascular conditions by administering vitamin K” (NATTOPHARMA AS, priority 2018, dated 2024).

Key:
[1] = tested on: kidney transplantation patients; test: Clinical study: pulse wave velocity measurement of arterial stiffness in kidney transplantation patients; format: in vivo, human; details: 360 ug/day for 8 weeks, kidney transplant patients
Description: Clinical Study to study the efficacy and safety of Vitamin K2 supplementation on arterial stiffness, the rigidity of arterial walls, in kidney transplantation patients.
A clinical study was carried out. Arterial wall property measurements were taken at t=0 and t=8 weeks and show a dramatic improvement in arterial wall flexibility. This is good support for concluding that the ingestion of vitamin K, even over this short period, is an effective way of improving endothelial function, reducing arterial stiffness and reducing calcification. […] It is surprising and unexpected because calcification is a slow progressive process and it was thought that reversing this process would also be slow and progressive.
(§1) Participants were enrolled in a clinical trial in which the effects of vitamin K2 were determined for patients who had recently undergone a kidney transplant. At the beginning of the study, patients were subjected to a non-invasive pulse wave velocity measurement to measure arterial stiffness/flexibility, as well as blood analysis. The study participants were then instructed to receive a specific daily dose of MenaQ7 vitamin K2 menaquinone-7 (360 ug/day) for a total of 8 weeks. At the end of 8 weeks, patients were again examined with a follow-up examination, a non-invasive pulse wave velocity measurement and blood analysis and drug treatment was discontinued.

matrix gla protein (MGP) = test: Clinical study: blood analysis of matrix gla protein (MGP) carboxylation; format: in vivo, human; details: 360 ug/day for 8 weeks, kidney transplant patients
Description: as §1
As part of the blood analysis, carboxylated matrix gla protein (MGP) was measured as a direct measure of vitamin K2 activity. The carboxylated MGP inhibits calcification of blood vessels and Vitamin K2 stimulates carboxylation of MGP.

CC(C)=CCC/C(C)=C/CC/C(C)=C/CC/C(C)=C/CC/C(C)=C/CC/C(C)=C/CC/C(C)=C/CC1=C(C)C(=O)c2ccccc2C1=O [MenaQ7, menaquinone-7]
mean reduction in measured pulse-wave velocity [1]: 30% | mean reduction of levels of uncarboxylated MGP (matrix gla protein (MGP)): 55%
